Laboratory results reported in patent publication US12459908B2, “Alpha, beta unsaturated methacrylic esters with anti-inflammatory properties” (Sitryx Therapeutics Limited, priority 2020, dated 2025).
Where a name gives a salt, the structure may show the parent alone.

Assays:
IL-1β = assay: THP-1 AlphaLISA IL-1β cytokine inhibition assay (differentiated THP-1 cells); format: cell-based; conditions: Homo sapiens, LPS 24 hr then Nigericin 1 hour, class symbols
Method: Biological Example 1—THP-1 AlphaLISA IL-1β
Measuring Inhibitory Effects on IL-1, Cytokine Output from THP-1s
(§1) The cytokine inhibition profiles of compounds of formula (I) were determined in a differentiated THP-1 cell assay. All assays were performed in RPMI-1640 growth medium (Gibco), supplemented with 10% fetal bovine serum (FBS; Gibco), 1% penicillin-streptomycin and 1% sodium pyruvate unless specified otherwise. The IL-1p cytokine inhibition assay was run in a background of differentiated THP-1 cells as described below. All reagents described were from Sigma-Aldrich unless specified otherwise. Compounds were prepared as 10 mM DMSO stocks.
(§2) THP-1 cells were expanded as a suspension up to 80% confluence in appropriate growth medium. Cells were harvested, suspended, and treated with an appropriate concentration of phorbol 12-myristate 13-acetate (PMA) over a 72 hr period (37° C./5% CO2).
(§3) Following 72 hrs of THP-1 cell incubation, cellular medium was removed and replaced with fresh growth media containing 1% of FBS. Working concentrations of compounds were prepared separately in 10% FBS treated growth medium and pre-incubated with the cells for 30 minutes (37° C./5% CO2). Following the 30 minute compound pre-incubation, THP-1s were treated with an appropriate concentration of LPS and the cells were subsequently incubated for a 24 hr period (37° C./5% CO2). An appropriate final concentration of Nigericin was then dispensed into the THP-1 plates and incubated for 1 hour (37° C./5% CO2) before THP-1 supernatants were harvested and collected in separate polypropylene 96-well holding plates.
(§4) Reagents from an IL-1β and IL-6 commercial kit (Perkin Elmer) were prepared and run according to the manufacturer's instructions. Subsequently, fluorescence signal detection in a microplate reader was measured (EnVision® Multilabel Reader, Perkin Elmer).
(§5) Percentage inhibition was calculated per cytokine by normalising the sample data to the high and low controls used within each plate (+/−LPS respectively). Percentage inhibition was then plotted against compound concentration and the 50% inhibitory concentration (IC50) was determined from the resultant concentration-response curve.

[1] = Hepatocyte stability assay, mouse cryopreserved hepatocytes; format: in vitro ADME; conditions: cryopreserved hepatocytes; Mouse hepatocytes, 10 μM, 60 min; class symbols; read-out: T½
Description: (§6) Biological Example 3—Hepatocyte Stability Assay
(§7) Defrosted cryo-preserved hepatocytes (viability >70%) were used to determine the metabolic stability of a compound via calculation of intrinsic clearance (CIint; a measure of the removal of a compound from the liver in the absence of blood flow and cell binding). Clearance data are particularly important for in vitro work as they can be used in combination with in vivo data to predict the half-life and oral bioavailability of a drug.
(§8) The metabolic stability in hepatocytes assay involves a time-dependent reaction using both positive and negative controls. The cells were pre-incubated at 37° C. and spiked with test compound (and positive control); samples taken at pre-determined time intervals were analysed to monitor the change in concentration of the initial drug compound over 60 minutes. A buffer incubation reaction (with no hepatocytes present) acted as a negative control and two cocktail solutions, containing compounds with known high and low clearance values (verapamil/7-hydroxycoumarin and propranolol/diltiazem), acted as positive controls. • 1. The assay was run with a cell concentration of 0.5×10^6 cells/mL in Leibovitz buffer. • 2. All compounds and controls were run in duplicate. • 3. Compound concentration was 10 μM. • 4. All compounds and controls were incubated with both cells and buffer to show turnover was due to hepatic metabolism. • 5. All wells on the incubation plate had 326.7 μL of either cells or buffer added. • 6. Prior to assay, cell and buffer-only incubation plates were preincubated for 10 mins at 37° C. • 7. The assay was initiated by adding compounds, 3.3 μL of 1 mM in 10% DMSO-90% Buffer; final DMSO concentration is 0.1%. • 8. Samples were taken at regular timepoints (0, 5, 10, 20, 40, 60 min) until 60 mins. • 9. Sample volume was 40 μL and was added to 160 μL of crash solvent (acetonitrile with internal standard) and stored on ice. • 10. At the end of the assay, the crash plates were centrifuged at 3500 rpm for 20 mins at 4° C. • 11. 80 μL of clear supernatant was removed and mixed with 80 μL of deionised water before being analysed by LC-MS/MS.
(§9) Raw LC-MS/MS data was exported to, and analysed in, Microsoft Excel for determination of intrinsic clearance. The percentage remaining of a compound was monitored using the peak area of the initial concentration as 100%. Intrinsic clearance and half-life values were calculated using a graph of the natural log of percentage remaining versus the time of reaction in minutes. Half-life (min) and intrinsic clearance (CIint in μL min^−1 10^−6 cells) values were calculated using the gradient of the graph (the elimination rate constant, k) and Equations 1 and 2.

[2] = system: cryo-preserved hepatocytes; assay: as above; format: in vitro ADME; conditions: Mouse hepatocytes, 10 μM, 60 min; class symbols
Description: as §6, §7, §8, §9

NRF2 = NRF2 activation assay (DiscoverX PathHunter NRF2 translocation kit, U2OS cells); format: cell-based; conditions: Homo sapiens, 6 hours; for Emax: normalised to DMF high control
Method: Biological Example 2—NRF2 Activation Assay
Measuring Compound Activation Effects on the Anti-Inflammatory Transcription Factor NRF2 in DiscoverX PathHunter NRF2 Translocation Kit
Potency and efficacy of compounds of formula (I) against the target of interest to activate NRF2 (nuclear factor erythroid 2-related factor 2) were determined using the PathHunter NRF2 translocation kit (DiscoverX). The NRF2 translocation assay was run using an engineered recombinant cell line, utilising enzyme fragment complementation to determine activation of the Keap1-NRF2 protein complex and subsequent translocation of NRF2 into the nucleus. Enzyme activity was quantified using a chemiluminescent substrate consumed following the formation of a functional enzyme upon PK-tagged NRF2 translocation into the nucleus.
Additionally, a defined concentration of DMF was used as the ‘High’ control to normalise test compound activation responses to.
U2OS PathHunter eXpress cells were thawed from frozen prior to plating. Following plating, U2OS cells were incubated for 24 hrs (37° C./5% CO2) in commercial kit provided cell medium.
Following 24 hrs of incubation, plated U2OS cells were directly treated with an appropriate final concentration of compound. […]
Following compound treatment, the U2OS plates were incubated for a further 6 hours (37° C./5% CO2) before detection reagent from the PathHunter NRF2 commercial kit was prepared and added to test plates according to the manufacturer's instructions. Subsequently, the luminescence signal detection was measured in a microplate reader (PHERAstar®, BMG Labtech).
Percentage activation was calculated by normalising the sample data to the high and low controls used within each plate (+/−DMF). Percentage activation/response was then plotted against compound concentration and the 50% activation concentration ([…]) was determined from the plotted concentration-response curve.

IL-6 = assay: THP-1 AlphaLISA IL-6 cytokine inhibition assay (differentiated THP-1 cells); format: cell-based; conditions: Homo sapiens, LPS 24 hr then Nigericin 1 hour, class symbols
Method: as §1, §2, §3, §4, §5

[3] = Hepatocyte stability assay, human cryopreserved hepatocytes; format: in vitro ADME; conditions: cryopreserved hepatocytes; Human hepatocytes, 10 μM, 60 min; class symbols; read-out: T½
Description: as §6, §7, §8, §9

Row | SMILES | IC50 (IL-1β) | half-life at 10 μM [1] | Clint [2] | EC50 (NRF2; class symbols) | Emax (NRF2; class symbols) | IC50 (IL-6) | half-life at 10 μM [3] | Emax (NRF2; numeric values) | EC50 (NRF2; numeric values)
1 | C=C(Cc1nc(C2(c3ccc(C(F)(F)F)cc3)CC2)no1)C(=O)OCC(=O)O [Example 4, 2-((2-((3-(1-(4-(trifluoromethyl)phenyl)cyclopropyl)-1,2,4-oxadiazol-5-yl)methyl)acryloyl)oxy)acetic acid] | < 5 µM | 5 to 11 min | ++ (++ means 95-350) | 5 to 10 µM | 135 to 165% | 5 to 10 µM | 60 to 100 min |  | 
2 | C=C(Cc1nc(CCCCC)no1)C(=O)OCC(=O)O [Example 21, 2-((2-((3-pentyl-1,2,4-oxadiazol-5-yl)methyl)acryloyl)oxy)acetic acid] | 21 to 24 µM |  |  | 11 to 21 µM | 166 to 250% | 11 to 20 µM |  |  | 
3 | COC(=O)/C=C/C(=O)OC [dimethyl fumarate, reference compound] |  |  |  |  |  |  |  | 100% | 6.1 µM
4 | C=C(Cc1nc(CCCCCCCC)no1)C(=O)OC(C(F)(F)F)C(C)(C)C(=O)O (centres unmarked) [Example 17, 4,4,4-trifluoro-2,2-dimethyl-3-((2-((3-octyl-1,2,4-oxadiazol-5-yl)methyl)acryloyl)oxy)butanoic acid] | < 5 µM | ≤ 4 min | + (+ means ≥351) |  |  | < 5 µM | 5 to 59 min |  | 
5 | C=C(Cc1nc(C2(c3ccc(Br)cc3)CC2)no1)C(=O)OCC(=O)O [Example 18, 2-((2-((3-(1-(4-bromophenyl)cyclopropyl)-1,2,4-oxadiazol-5-yl)methyl)acryloyl)oxy)acetic acid] | < 5 µM | 5 to 11 min | ++ (++ means 95-350) | 5 to 10 µM | 166 to 250% | < 5 µM | 60 to 100 min |  | 
6 | C=C(Cc1nc(C2(c3ccc(C(F)(F)F)cc3)CC2)no1)C(=O)O[C@H](CC(=O)O)C(F)(F)F [Example 7, (R)-4,4,4-trifluoro-3-((2-((3-(1-(4-(trifluoromethyl)phenyl)cyclopropyl)-1,2,4-oxadiazol-5-yl)methyl)acryloyl)oxy)butanoic acid] | < 5 µM | ≤ 4 min | + (+ means ≥351) | < 5 µM | 3 to 100% | < 5 µM | 5 to 59 min |  | 
7 | C=C(Cc1nc(C2(c3ccc(C(F)(F)F)cc3)CC2)no1)C(=O)O[C@@H](CC(=O)O)C(F)(F)F [Example 8, (S)-4,4,4-trifluoro-3-((2-((3-(1-(4-(trifluoromethyl)phenyl)cyclopropyl)-1,2,4-oxadiazol-5-yl)methyl)acryloyl)oxy)butanoic acid] | < 5 µM | ≤ 4 min | + (+ means ≥351) | < 5 µM | 135 to 165% | < 5 µM | 5 to 59 min |  | 
8 | C=C(Cc1nc(Cc2ccc(CCCC)cc2)no1)C(=O)OCc1nnn[nH]1 [Example 16, (1H-tetrazol-5-yl)methyl 2-((3-(4-butylbenzyl)-1,2,4-oxadiazol-5-yl)methyl)acrylate] | < 5 µM | ≤ 4 min | + (+ means ≥351) | < 5 µM | 135 to 165% | < 5 µM | 5 to 59 min |  | 
9 | C=C(Cc1nc(Cc2ccc(CCCC)cc2)no1)C(=O)OCCC(=O)O [Example 15, 3-((2-((3-(4-butylbenzyl)-1,2,4-oxadiazol-5-yl)methyl)acryloyl)oxy)propanoic acid] | < 5 µM | ≤ 4 min | + (+ means ≥351) |  |  | < 5 µM | 5 to 59 min |  | 
10 | C=C(Cc1nc(Cc2ccc(OC(F)(F)F)cc2)no1)C(=O)OCC(=O)O [Example 20, 2-((2-((3-(4-(trifluoromethoxy)benzyl)-1,2,4-oxadiazol-5-yl)methyl)acryloyl)oxy)acetic acid] | 5 to 10 µM | 5 to 11 min | ++ (++ means 95-350) |  |  | < 5 µM | > 100 min |  | 
11 | C=C(Cc1nc(CCCCCCCC)no1)C(=O)OCCC(=O)O [Example 2] | < 5 µM | ≤ 4 min | + (+ means ≥351) | < 5 µM | 135 to 165% |  | 5 to 59 min |  | 
12 | C=C(Cc1nc(Cc2ccc(CCCC)cc2)no1)C(=O)O[C@H](CC(=O)O)C(F)(F)F [Example 9, (R)-3-((2-((3-(4-butylbenzyl)-1,2,4-oxadiazol-5-yl)methyl)acryloyl)oxy)-4,4,4-trifluorobutanoic acid] | < 5 µM |  |  | < 5 µM | 101 to 134% | < 5 µM |  |  | 
13 | C=C(Cc1nc(Cc2ccc(CCCCC)cc2)no1)C(=O)O[C@@H](CC(=O)O)C(F)(F)F [Example 12, (S)-4,4,4-trifluoro-3-((2-((3-(4-pentylbenzyl)-1,2,4-oxadiazol-5-yl)methyl)acryloyl)oxy)butanoic acid] | < 5 µM |  |  | < 5 µM | 166 to 250% | < 5 µM |  |  | 
14 | C=C(Cc1nc(Cc2ccc(CCCCC)cc2)no1)C(=O)O[C@H](CC(=O)O)C(F)(F)F [Example 11, (R)-4,4,4-trifluoro-3-((2-((3-(4-pentylbenzyl)-1,2,4-oxadiazol-5-yl)methyl)acryloyl)oxy)butanoic acid] | < 5 µM |  |  | < 5 µM | 101 to 134% | < 5 µM |  |  | 
